In ChEMBL document CHEMBL1152050, “Asymmetric synthesis of enantiomerically pure 4-fluoroalkyl-2,3-dideoxy nucleosides” (Bioorg Med Chem Lett, 1994):

Key:
MT4 [1] = experiment: Cytotoxicity by the MTT assay in MT-4 cells at a dose of 100 ug/ml; No significant activity; format: functional, cell-based; settings: Homo sapiens
MT4 [2] = experiment: Antiviral activity expressed as ability to prevent the HIV-induced cytopathic effect in MT-4 cells at a dose of 100 ug/ml; No significant activity; format: functional, cell-based; settings: Homo sapiens

| SMILES | Activity (MT4 [1]) | Activity (MT4 [2]) |
| --- | --- | --- |
| Cc1cn([C@@H]2CCC(CO)(CF)O2)c(=O)[nH]c1=O (single isomer, unassigned) | No significant activity | No significant activity |
| Cc1cn(C2CC[C@](CO)(CF)O2)c(=O)[nH]c1=O (single isomer, unassigned) | No significant activity | No significant activity |
